Data reported in publication PMC7492691 (2020).

Tests used:
[1] = test system: poly(dGdC)2 (DNA, polymer) GC; assay: UV-vis titration, Scatchard fit; details: Na+ (sodium cacodylate, I = 0.05 M); pH 5, 25 °C; n fixed at 0.2; polynucleotide concentration in phosphates; per base
[2] = test system: poly(dA)–poly(dT) (DNA, polymer) A/T; assay: UV-vis titration, Scatchard fit; details: Na+ (sodium cacodylate, I = 0.05 M); pH 5, 25 °C; n fixed at 0.2; polynucleotide concentration in phosphates; per base
[3] = test system: poly(rA)–poly(rU) (RNA, polymer) A/U; assay: UV-vis titration, Scatchard fit; details: Na+ (sodium cacodylate, I = 0.05 M); pH 7, 25 °C; n fixed at 0.2; concentration in phosphates; log Ka 6.0 at pH 5; per base
[4] = test system: poly(dAdT)2 (DNA, polymer) AT; assay: UV thermal denaturation, 260 nm; details: Na+ (sodium cacodylate, I = 0.05 M); pH 5; r = [4]/[polynucleotide] = 0.1; per base
[5] = test system: poly(dA)–poly(dT) (DNA, polymer) A/T; assay: UV thermal denaturation, 260 nm; details: Na+ (sodium cacodylate, I = 0.05 M); pH 5; r = [4]/[polynucleotide] = 0.1; per base
[6] = test system: poly(rA)–poly(rU) (RNA, polymer) A/U; assay: UV thermal denaturation, 260 nm; details: Na+ (sodium cacodylate, I = 0.05 M); pH 5; r = [4]/[polynucleotide] = 0.2; per base
[7] = test system: poly(dAdT)2 (DNA, polymer) AT; assay: ITC, two sets of sites fit; details: Na+ (sodium cacodylate, I = 0.05 M); pH 5, 25 °C; site 1 of 2; polynucleotide concentration in phosphates; per base
[8] = test system: poly(rA)–poly(rU) (RNA, polymer) A/U; assay: ITC, single set of sites fit; details: Na+ (sodium cacodylate, I = 0.05 M); pH 5, 25 °C; polynucleotide concentration in phosphates; per base
[9] = test system: poly(dAdT)2 (DNA, polymer) AT; assay: UV-vis titration, Scatchard fit; details: Na+ (sodium cacodylate, I = 0.05 M); pH 5, 25 °C; n fixed at 0.2; polynucleotide concentration in phosphates; per base

- log Ka [1]: 7.2
- log Ka [2]: 6.4
- log Ka [3]: 4.5
- ∆Tm [4]: 10.0 ± 0.5 °C
- ∆Tm [5]: 10.5 ± 0.5 °C
- ∆Tm [6]: 6.8 ± 0.5 °C
- log Ka1 [7]: 6.7
- log Ka1 [8]: 6.9
- log Ka [9]: 5.8
Compound: N=C(N)NC(=O)c1ccc(C(=O)NCCCC[C@H](N)C(=O)NCCN2C(=O)c3ccc4c5c(ccc(c35)C2=O)C(=O)N(CCNC(=O)[C@@H](N)CCCCNC(=O)c2ccc(C(=O)NC(=N)N)[nH]2)C4=O)[nH]1
